Source: ChEMBL document CHEMBL1201862, “PubChem BioAssay data set” (2004)
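Protocol summary: plate cells (96-well), add compound at 5 concentrations, incubate 48 h, interpolate endpoints linearly. GI50 is the concentration that inhibits growth by half.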 The source made the active and inactive calls. No stated cut-off is given here; in the data, active = GI50 up to about 1.1 µM and inactive = higher.

Key:
Assay in all cases: inhibition of tumour cell growth, NCI panel, 48 h
DLD-1 = tested on: DLD-1
DMS-114 = tested on: DMS-114
DMS-273 = tested on: DMS-273
HOP-62 = tested on: HOP-62
HT-29 = tested on: HT-29
KM-20L2 = tested on: KM-20L2
M19-MEL = tested on: M19-MEL
MOLT-4 = tested on: MOLT-4
SF-539 = tested on: SF-539
SK-MEL-5 = tested on: SK-MEL-5
SR = tested on: SR
UO-31 = tested on: UO-31
786-0 = tested on: 786-0
LOX IMVI = tested on: LOX IMVI
NCI/ADR-RES = tested on: NCI/ADR-RES

Measured: GI50

CC1(C)OC[C@H](C(=N)OCc2ccccc2)O1
inactive: DLD-1 > 100 µM | DMS-114 > 100 µM | DMS-273 > 100 µM | HOP-62 > 100 µM | HT-29 > 100 µM | KM-20L2 > 100 µM | M19-MEL > 100 µM | MOLT-4 > 100 µM | SF-539 > 100 µM | SK-MEL-5 > 100 µM | SR > 100 µM | UO-31 > 100 µM

COc1ccc(-c2cc(C(=O)Nc3cc(C(F)(F)F)cc(C(F)(F)F)c3)c3ccccc3n2)cc1
inactive: 786-0 11.7 µM | DLD-1 11.4 µM | DMS-114 6.56 µM | DMS-273 8.36 µM | HOP-62 12.8 µM | HT-29 9.06 µM | KM-20L2 7.08 µM | LOX IMVI 13.4 µM | M19-MEL 17.2 µM | MOLT-4 14.2 µM | SF-539 12.3 µM | SK-MEL-5 18 µM | SR 4.29 µM | UO-31 24.5 µM

C=CCN(C)CN(C)c1nc(N(C)C)nc(N(C)C)n1
inactive: 786-0 43.9 µM | DLD-1 49.4 µM | DMS-114 19.7 µM | DMS-273 22.3 µM | HOP-62 > 100 µM | HT-29 > 100 µM | KM-20L2 > 100 µM | LOX IMVI 54 µM | M19-MEL > 100 µM | MOLT-4 > 100 µM | SF-539 > 100 µM | SK-MEL-5 > 100 µM | SR 49.2 µM | UO-31 > 100 µM

O=c1oc2ccccc2n1P(=O)(Oc1ccc(Cl)cc1)n1c(=O)oc2ccccc21
inactive: DLD-1 > 100 µM | DMS-114 > 100 µM | DMS-273 78.9 µM | HOP-62 > 100 µM | HT-29 > 100 µM | KM-20L2 > 100 µM | LOX IMVI > 100 µM | M19-MEL > 100 µM | MOLT-4 39.5 µM | SF-539 > 100 µM | SK-MEL-5 > 100 µM | SR > 100 µM | UO-31 > 100 µM

CC12CCC(=O)N1c1cnccc1N2 (configuration not stated)
inactive: DLD-1 > 100 µM | DMS-114 > 100 µM | DMS-273 > 100 µM | HOP-62 > 100 µM | HT-29 > 100 µM | KM-20L2 > 100 µM | MOLT-4 > 100 µM | SF-539 > 100 µM | SK-MEL-5 > 100 µM | SR > 100 µM | UO-31 > 100 µM

C=C1CC[C@@H](Br)C(C)(C)[C@]12CCC(C)(O)C(Cl)C2 (some centres not stated)
inactive: DLD-1 17.5 µM | DMS-114 17.2 µM | DMS-273 18.8 µM | HOP-62 23.3 µM | HT-29 16.8 µM | KM-20L2 18.3 µM | LOX IMVI 19.1 µM | M19-MEL 18.8 µM | MOLT-4 18.7 µM | SK-MEL-5 20.9 µM | UO-31 18.1 µM

N/C(=N\O)N/N=C/c1ncccc1O
inactive: DLD-1 5.65 µM | DMS-114 8.05 µM | DMS-273 7.28 µM | HOP-62 19.8 µM | HT-29 13.4 µM | KM-20L2 10.4 µM | LOX IMVI 11.2 µM | M19-MEL 19.2 µM | MOLT-4 11.2 µM | NCI/ADR-RES 8.73 µM | SF-539 19.7 µM | SK-MEL-5 11.4 µM | UO-31 13.3 µM

CCOC(=O)/C=C1/C(CCCOCc2ccccc2)C2CCCC23CC2(CCN13)OCCO2 (configuration not stated)
inactive: DLD-1 19 µM | DMS-114 13.9 µM | DMS-273 16.8 µM | HT-29 16.9 µM | KM-20L2 22.3 µM | LOX IMVI 18.1 µM | M19-MEL 19.6 µM | MOLT-4 11.4 µM | SK-MEL-5 15.7 µM | UO-31 17.2 µM

CC(=O)OC1CCn2nnc(CO)c21 (configuration not stated)
inactive: 786-0 > 100 µM | DLD-1 > 100 µM | DMS-114 > 100 µM | DMS-273 > 100 µM | HT-29 > 100 µM | KM-20L2 > 100 µM | M19-MEL > 100 µM | MOLT-4 > 100 µM | SF-539 58.5 µM | SK-MEL-5 > 100 µM | SR > 100 µM | UO-31 > 100 µM

Nc1c(-c2cn(Cc3ccccc3)c3ccccc23)[n+]([O-])c2ccccc2[n+]1[O-]
inactive: 786-0 30.7 µM | DLD-1 32.7 µM | DMS-114 16.7 µM | DMS-273 23.8 µM | HT-29 27.2 µM | KM-20L2 34.6 µM | LOX IMVI 24.2 µM | M19-MEL 38.9 µM | MOLT-4 16.8 µM | SK-MEL-5 21.9 µM | UO-31 10.2 µM

N#C/C(=C1\OC(=O)C(c2ccc(Br)cc2)=C1O)c1ccc(Br)cc1
inactive: 786-0 14.7 µM | DLD-1 15.8 µM | DMS-114 12.8 µM | DMS-273 21.3 µM | HOP-62 19.2 µM | HT-29 17.3 µM | KM-20L2 17.5 µM | LOX IMVI 15 µM | M19-MEL 14.6 µM | MOLT-4 17.2 µM | SF-539 16.1 µM | SR 17.9 µM | UO-31 15.1 µM

Nc1c(S(=O)(=O)O)cc(S(=O)(=O)O)c2ccc(/N=N/c3ccc(/C=C/c4ccc(/N=N/c5ccc6c(S(=O)(=O)O)cc(S(=O)(=O)O)c(N)c6c5O)cc4S(=O)(=O)O)c(S(=O)(=O)O)c3)c(O)c12
inactive: DLD-1 > 100 µM | DMS-114 > 100 µM | DMS-273 > 100 µM | HOP-62 > 100 µM | HT-29 > 100 µM | KM-20L2 79.4 µM | LOX IMVI > 100 µM | M19-MEL > 100 µM | MOLT-4 > 100 µM | NCI/ADR-RES > 100 µM | SF-539 > 100 µM | SK-MEL-5 > 100 µM | UO-31 37.1 µM
